Format in all cases: in vivo
Assay [1] concerns CCI-induced neuropathic pain rat model. The assay is described as follows: Analgesic effect on mechanical hyperalgesia (PWT) in CCI-induced neuropathic pain rat model. The procedure:
The chronic constriction nerve injury (CCI)-induced neuropathic pain rat model was built according to a published method (Bennett G J, et al. Pain, 1988). The experimental rats were anesthetized by intraperitoneal injection of 10 wt % chloral hydrate (300 mg/kg), and then placed on a super-clean bench, and the operation area was disinfected with iodophor.
The ligation tightness should be adjusted to cause slight twitching of a leg on an operated side of the rat without affecting the blood circulation of the epineurium. The wound was sutured layeredly and wiped with iodophor according to the postoperative situation. The rats were transferred back into a cage for rest upon fully recovering. The PWT was measured 5 days after modeling, where those with a significant lower PWT were considered as successful neuropathic pain rat models, and the undesirable rats were excluded.
(S1) A total of 15 healthy adult SD rats, weighing 180-220 g, were selected, numbered on tails and placed in the same cage.
(S2) The rats were raised in a measuring room for 2 h for adaptation.
The measurement was repeated 3-5 times for each rat at an interval of 5-10 min, and the results were averaged. Then the rats were allowed to rest for several hours and then adopted to build a CCI-induced neuropathic pain model.
(S4) The PWT was measured on the morning of the 3rd day and the 6th day after the modeling, and those unsuccessful models were removed. And on the 6th after the modeling, the successful rat models were randomly divided into 3 groups, where the group A was injected with normal saline; the group B was injected with 5 mg/kg of morphine; and the group C was intradermally injected with 8 μg/kg of the short peptide P10581 into the left hind paw. 1 h later, the PWT of each group was recorded when the left hind paw generated mechanical withdrawal. Each of the rats was measured 3-5 times at an interval of 5-10 min, and the PWTs were averaged as the actual PWT (unit: g). The drug injection was fixedly performed at 9:00 a.m. and 5:30 p.m. from the 6th day to the 14th day after modeling, and the PWT of each group was measured before and after administration every other day. On the 15th day after modeling, the group B was injected with 8 μg/kg of the short peptide P10581 and the group C was injected with 5 mg/kg of the morphine, and the PWT of the group B and group C was recorded when the mechanical withdrawal occurred to the left hind paw.
(1) 30 healthy adult SD rats, weighing 180-220 g, were selected to build a CCI-induced neuropathic pain model. On the 8th day after the modeling, successfully-established models were randomly divided into 6 groups, where the group A was injected with 0.45 μg/kg of the short peptide P10581; the group B was injected with 0.9 μg/kg of the short peptide P10581; the group C was injected with 1.8 μg/kg of the short peptide P10581; the group D was injected with 3.6 μg/kg of the short peptide P10581; the group E was injected with 7.2 μg/kg of the short peptide P10581; and the group F was injected with 8.5 μg/kg of the short peptide P10581. The PWT of each group was measured 1.5 h later.
(2) Each group was injected with 7.2 μg/kg of the short peptide P10581 at 5:30 p.m. on the 8th day after modeling, and then continuously injected from the 9th day to the 16th day 16 (injected with 7.2 μg/kg of the short peptide P10581 at 9:00 a.m. and 5:30 p.m. a day). The PWT of rats before and after administration in the morning was measured every other day.
(3) On the 17th day after modeling, the six groups were injected with different doses of the short peptide P10581, respectively, according to step (1). 1.5 h later, the PWT of each group was measured to evaluate the effect of dose.
(1) 15 healthy adult SD rats, weighing 180-220 g, were selected to build a CCI-induced neuropathic pain model.

The test system of assay [2] is morphine analgesic tolerance, neuropathic pain rat model. The conditions noted are these: for analgesic effect of morphine restored: after 5-day continuous administration. The procedure:
(1) 15 healthy adult SD rats, weighing 180-220 g, were selected to build a CCI-induced neuropathic pain model. 6 days after the modeling, successful models were randomly divided into 3 groups, where the group A was injected with 0.1 μg/kg of the short peptide P10581; the group B was injected with 5 mg/kg of the morphine; and the group C was injected with 0.1 μg/kg of the short peptide P10581, and then with 5 mg/kg of the morphine 30 min later. 1 h later, the PWT of each group was recorded.
(2) Each group was injected with the drug in the afternoon on the 6th day after the modeling, and from the 7th day to the 12th day, the drug administration was performed at 9:00 a.m. and 5:30 p.m. (5 mg/kg of morphine twice a day; and 0.1 μg/kg of the short peptide P10581 was administered 30 min before the morphine injection). The PWT of rats in each group before and after administration in the morning was measured every other day.
(1) 30 healthy adult SD rats, weighing 180-220 g, were selected to build a CCI-induced neuropathic pain model. Those successfully-established models were randomly divided into 6 groups on the 6th day, where the groups A was injected with normal saline; and the groups B-F were injected with 0.01 μg/kg, 0.025 μg/kg, 0.1 μg/kg, 0.2 μg/kg and 0.4 μg/kg of the short peptide P10581, respectively. 30 min later, the groups A-F were further injected with 5 mg/kg of the morphine, and 1 h later, the PWT of each group was recorded.
(2) Each group was injected with the drug in the afternoon on the 6th day after modeling, and from the 7th day to the 10th day, the drug administration was performed at 9:00 a.m. and 5:30 p.m. (injected twice a day consecutively for 5 days), and the PWT of each group before and after the administration in the morning was measured every other day.
In the FIG. 10B, ΔPWT (drug) and ΔPWT (Baseline) were calculated as follows: ΔPWT(drug)=PWT(post-drug)−PWT(pre-drug); and ΔPWT(Baseline)=PWT(before CCI)−PWT(after CCI).
The intensity of the relieving effect on the tolerance was represented by ΔPWT (drug)/ΔPWT (Baseline), where the ΔPWT (drug) indicated a difference between pain thresholds before and after Mor+P10581 injection in the morning.

Assay [3] has the same test system. How it is done:
(1) 18 healthy adult SD rats, weighing 180-220 g, were selected to build a CCI-induced neuropathic pain model. On the 7th day after modeling, those successfully-established models were randomly divided into 3 groups, where the group A was injected with normal saline; the group B was injected with morphine (15 μg, 10 μL); and the group C was injected with 0.2 μg/kg of the short peptide P10581, and then injected with morphine (15 μg, 10 μL) 30 min later. 1 h later, the PWT of each group was recorded.
(2) Each group was injected with the drug respectively at 9:00 a.m. and 5:30 p.m. from 7th day to 11th day after modeling, and the PWT of each group was measured before and after the administration in the morning every day.

Where [4] appears, read: 8 μg/kg i.d., twice a day, repeated.

Like-named read-outs stand apart in the source and are kept apart here.

`CN1CC[C@]23c4c5ccc(O)c4O[C@H]2[C@@H](O)C=C[C@H]3[C@H]1C5` [morphine, reference compound]: in assay [1] (rat, in vivo), the “analgesic effect / tolerance after repeated injection” value is listed as “eventually lost the analgesic effect” and the “analgesic effect of morphine after repeated P10581” value is “the same analgesic effect was still kept”. Moreover, the “analgesic effect of morphine alone” value in assay [2] (rat, in vivo) is recorded as “almost completely disappeared”. Moreover, in assay [3] (rat, in vivo), the “analgesic effect of morphine on neuropathic pain” value is listed as “completely disappeared”.

With WKCNPNDDKCCRPKLKC [P10581], the “analgesic effect on neuropathic pain threshold, low dose” value in assay [1] (0.1 μg/kg i.d., twice a day) is listed as “no effect on the threshold of neuropathic pain in rats”. For the same compound, in assay [1] (7.2 μg/kg i.d. repeated (FIG. 8D)), the “IC50 before vs after repeated administration” value is recorded as “did not bring significant difference to the IC50”. For the same compound, in assay [1] (7.2 μg/kg i.d., twice a day, 9 days, test doses 0.45-8.5 μg/kg), the “change of PWT after repeated high-dose administration” value is “no obvious change occurred to the PWT”. The “analgesic effect in morphine-tolerant rats” value in assay [1] (8 μg/kg i.d. on day 10 after repeated morphine 5 mg/kg) was “neuropathic pain threshold of rats can be reversed”. Moreover, in assay [1] (setting [4]), the “analgesic effect on neuropathic pain” value is “neuropathic pain was alleviated”. Moreover, in assay [1] (setting [4]), the “analgesic tolerance after repeated injection” value is listed as “no analgesic tolerance occurred”. In addition, the “administration dose at which analgesic effect reached the peak” value in assay [1] (neuropathic pain, i.d.) was determined as 7.2 µg/kg. Moreover, the “effect on morphine analgesic tolerance” value in assay [2] (0.1 μg/kg peptide 30 min before 5 mg/kg morphine, twice a day) was “partially relieved the morphine analgesic tolerance”; in assay [2] (0.4 μg/kg peptide + 5 mg/kg morphine (FIGS. 10A, 10B)), “completely reversed”; in assay [2] (0.4 μg/kg peptide, after 3-day consecutive injection of morphine), “completely reverse the morphine analgesic tolerance”; in assay [3] (0.2 μg/kg peptide intrathecal 30 min before morphine 15 μg), “completely eliminated”. The “restoration of analgesic effect of morphine” value in assay [2] (0.1 μg/kg peptide + 5 mg/kg morphine, 5th day) was “restored by half”. Besides, the “analgesic effect of morphine restored, ΔPWT (drug)/ΔPWT (Baseline)” value in assay [2] (0.2 μg/kg peptide, after 3-day consecutive injection of morphine) turned out to be 90.1%. Moreover, the “analgesic effect of morphine restored” value in assay [2] (0.2 μg/kg peptide) is reported as “higher than 60%”; in assay [2] (0.4 μg/kg peptide) it was “higher than 85%”. The “dose at which morphine analgesic tolerance is effectively relieved” value in assay [2] (neuropathic pain, rats) was at least 0.01 µg/kg.

Values taken from US11612634B2 (priority 2020, dated 2023).
